Measured values published in US20220288404A1, “METHODS FOR APPLYING TUMOR TREATING FIELDS IN COMBINATION WITH CANCER TREATING THERAPEUTICS” (THE BOARD OF REGENTS OF THE UNIVERSITY OF TEXAS SYSTEM, priority 2021, published 2022).

Key:
Format in all cases: cell-based
04.03 cells = test: Clonogenic cell survival assay, 04.03 cells; conditions: for CI 2Gy + Olap / CI TTFields + 2Gy + Olap / CI TTFields + Olap: CI>1 synergistic
Description: (§1) Using certain embodiments disclosed herein, TTFields in combination with various inhibitors and/or radiation treatment (IR) were applied to NSCLC cells or pancreatic cancer cells. For example, a predetermined inhibitor at a predetermined concentration was delivered to NSCLC cells or pancreatic cancer cells, and the cells were immediately exposed to TTFields (e.g., 100-250 kHz and 1-20 V/cm v/cm) for about 24, […], or 72 hours. The predetermined concentration was a cell line specific concentration for optimal target cell killing.
(§2) Olaparib was given concomitant with TTFields. Radiation was given 24, 48 or 72 h after the initiation of TTFields and specific agents. […] Values greater than 1.0 are considered as synergistic, that is, greater than the sum of the individual responses. The following formulas were used for calculating CI: SF=Survival Fraction; CI (TTFields)+(2Gy)=(SF2Gy×SFTTFields)/SF2Gy+TTFields; CI(TTFields)+(Olap)=(SFOlap×SFTTFields)/SFOlap+TTFields; CI (2Gy)+(Olap)=(SF2Gy×SFOlap)/SF2Gy+Olap; and CI (TTFields)+(2Gy)+(Olap)=(SF2Gy×SFOlap×SFTTFields)/SFTTFields+2Gy+Olap. […] Based upon the Highest Single Agent […] approach. The calculation for the Combination Index can be found below.
(§3) FIGS. 4 and 5 depict example effects of TTFields, AZD6738, radiation, and a combination thereof on non-small cell lung cancer cells (NSCLC) and pancreatic cancer cell, respectively. In particular, FIGS. 4 and 5 show TTFields exposure synergistically increases the effects of ATR inhibitor AZD6738 on NSLCL cells (FIG. 4) survival and pancreatic cancer cell (FIG. 5) survival. TTFields were used together with ATR inhibitor AZD6738 and radiation (IR). A synergistic effect was observed when AZD6738 and IR were combined with TTFields using the highest single agent (HSA) approach. The following formulas were used for calculating CI: SF=Survival Fraction; CI (TTFields)+(2Gy)=(SF2Gy×SFTTFields)/SF2Gy+TTFields; CI(TTFields)+(AZD)=(SFAZD×SFTTFields)/SFAZD+TTFields; CI (2Gy)+(AZD)=(SF2Gy×SFAZD)/SF2Gy+AZD; and CI (TTFields)+(2Gy)+(AZD)=(SF2Gy×SFAZD×SFTTFields)/SFTTFields+2Gy+AZD.

Panc-1 cells = test: Clonogenic cell survival assay, Panc-1 cells; conditions: for CI 2Gy + Olap / CI TTFields + 2Gy + Olap / CI TTFields + Olap / CI Irino + 2Gy / CI TTFields + Irino / CI TTFields + Irino + 2Gy: CI>1 synergistic; for surviving fraction: agent as shown in figure
Description: as §1, §2, §3
(§4) The following formulas are used for calculating the combination Index: SF=Survival Fraction; CI (TTFields)+(2Gy)=(SF2Gy×SFTTFields)/SF2Gy+TTFields; CI(TTFields)+(Irino)=(SFIrino×SFTTFields)/SFIrino+TTFields; CI (2Gy)+(Irino)=(S2Gy×SFIrino)SF2Gy+Irino; and CI (TTFields)+(2Gy)+(Irino)=(SF2Gy×SFIrino×SFTTFields)/SFTTFields+2Gy+Irino.

H1299 cells [1] = test: Clonogenic cell survival assay, H1299 cells; conditions: 48 h, CI>1 synergistic
H157 cells = test: Clonogenic cell survival assay, H157 cells; conditions: for CI Irino + 2Gy / CI TTFields + Irino / CI TTFields + Irino + 2Gy / CI TTFields + CP: CI>1 synergistic
Description: as §1, with “killing. Then, the cells were irradiated (at a dose of 2Gy) for less than a minute (e.g., 3.25 Gy/min) and immediately plated for survival.” for “killing.”
as §3, §4

H1299 cells [2] = test: Clonogenic cell survival assay, H1299 cells; conditions: for CI Irino + 2Gy / CI TTFields + Irino / CI TTFields + Irino + 2Gy / CI TTFields + CP: CI>1 synergistic
Description: as §1, with “killing. Then, the cells were irradiated (at a dose of 2Gy) for less than a minute (e.g., 3.25 Gy/min) and immediately plated for survival.” for “killing.”
as §3, §4

NSCLC = test: Cell survival of NSCLC cells with CP/ETP with/without TTFields (FIG. 6); conditions: HSA approach
Description: as §1, with “killing. Then, the cells were irradiated (at a dose of 2Gy) for less than a minute (e.g., 3.25 Gy/min) and immediately plated for survival.” for “killing.”
FIG. 6 depicts example effects of TTFields, Cisplatin, Etoposide, and a combination thereof on NSCLC. […] CP and ETP were tested alone or in combination and with/without TTFields.

## O=C(c1cc(Cc2n[nH]c(=O)c3ccccc23)ccc1F)N1CCN(C(=O)C2CC2)CC1 [Olap, Olaparib]
04.03 cells
  effect of combinations of TTFields, agent and/or IR on cell survival: synergistic effects
04.03 cells; 24 h
  CI 2Gy + Olap: 1.550
  CI TTFields + 2Gy + Olap: 2.863
  CI TTFields + Olap: 1.101
04.03 cells; 48 h
  CI 2Gy + Olap: 1.582
  CI TTFields + 2Gy + Olap: 2.066
  CI TTFields + Olap: 0.973
04.03 cells; 72 h
  CI 2Gy + Olap: 1.462
  CI TTFields + 2Gy + Olap: 3.818
  CI TTFields + Olap: 1.042
04.03 cells; agent as shown in figure
  surviving fraction: significantly reduced
Panc-1 cells
  effect of combinations of TTFields, agent and/or IR on cell survival: synergistic effects
  surviving fraction: significantly reduced
Panc-1 cells; 24 h
  CI 2Gy + Olap: 0.890
  CI TTFields + 2Gy + Olap: 1.589
  CI TTFields + Olap: 1.035
Panc-1 cells; 48 h
  CI 2Gy + Olap: 0.975
  CI TTFields + 2Gy + Olap: 1.817
  CI TTFields + Olap: 1.209
Panc-1 cells; 72 h
  CI 2Gy + Olap: 1.030
  CI TTFields + 2Gy + Olap: 2.028
  CI TTFields + Olap: 1.215

## CCc1c2c(nc3ccc(OC(=O)N4CCC(N5CCCCC5)CC4)cc13)-c1cc3c(c(=O)n1C2)COC(=O)[C@]3(O)CC [Irino, Irinotecan]
H1299 cells [1]
  CI TTFields + Irino: 1.821
H157 cells
  effect of combinations of TTFields, agent and/or IR on cell survival: synergistic effects
H157 cells; 24 h
  CI Irino + 2Gy: 1.064
  CI TTFields + Irino: 1.483
  CI TTFields + Irino + 2Gy: 1.763
H157 cells; 48 h
  CI Irino + 2Gy: 1.244
  CI TTFields + Irino: 1.174
  CI TTFields + Irino + 2Gy: 1.463
H157 cells; 72 h
  CI Irino + 2Gy: 1.275
  CI TTFields + Irino: 1.136
  CI TTFields + Irino + 2Gy: 2.501
H157 cells; agent as shown in figure
  surviving fraction: significantly reduced
Panc-1 cells
  effect of combinations of TTFields, agent and/or IR on cell survival: synergistic effects
  surviving fraction: significantly reduced
Panc-1 cells; 24 h
  CI Irino + 2Gy: 1.022
  CI TTFields + Irino: 1.082
  CI TTFields + Irino + 2Gy: 2.360
Panc-1 cells; 48 h
  CI Irino + 2Gy: 1.009
  CI TTFields + Irino: 0.974
  CI TTFields + Irino + 2Gy: 2.335
Panc-1 cells; 72 h
  CI Irino + 2Gy: 1.132
  CI TTFields + Irino: 1.030
  CI TTFields + Irino + 2Gy: 4.454
H1299 cells [2]
  effect of combinations of TTFields, agent and/or IR on cell survival: synergistic effects
H1299 cells [2]; 24 h
  CI Irino + 2Gy: 1.244
  CI TTFields + Irino: 1.388
  CI TTFields + Irino + 2Gy: 2.365
H1299 cells [2]; 48 h
  CI Irino + 2Gy: 1.012
  CI TTFields + Irino + 2Gy: 2.130
H1299 cells [2]; 72 h
  CI Irino + 2Gy: 1.027
  CI TTFields + Irino: 2.081
  CI TTFields + Irino + 2Gy: 2.051
H1299 cells [2]; agent as shown in figure
  surviving fraction: significantly reduced

## N.N.[Cl][Pt][Cl] [CP, Cisplatin]
NSCLC
  cell killing capacity in combination with TTFields: synergistically enhanced
H157 cells; 24 h
  CI TTFields + CP: 0.887
H157 cells; 48 h
  CI TTFields + CP: 0.869
H157 cells; 72 h
  CI TTFields + CP: 1.079
H1299 cells [2]; 24 h
  CI TTFields + CP: 1.140
H1299 cells [2]; 48 h
  CI TTFields + CP: 1.021
H1299 cells [2]; 72 h
  CI TTFields + CP: 1.225
